pIC50: −log10 of the molar value. Active and inactive are the calls of the source. The rule behind the calls is not given here.
Experiments:
[1] = test system: SH-SY5Y; assay: Effect on cell proliferation in human SH-SY5Y cells at 1 to 10 uM measured after 1 hr by MTT assay; type: ADME, cell-based
[2] = test system: Mus musculus; assay: In vivo inhibition of JNK in APPswe/PS1dE9 double mutant-transgenic mouse model assessed as reduction in APP phosphorylation at Thr668 residue in hippocampus at 30 mg/kg, ip administered once daily for 12 weeks measured post-last dose by Western blot analysis; type: functional, organism-based
[3] = test system: Mus musculus; assay: In vivo inhibition of JNK in APPswe/PS1dE9 double mutant-transgenic mouse model assessed as reduction in Tau phosphorylation at Ser235 residue in cortex at 30 mg/kg, ip administered once daily for 12 weeks measured post-last dose by Western blot analysis; type: functional, organism-based
[4] = test system: Mus musculus; assay: Improvement in spatial memory impairment in ip dosed APPswe/PS1dE9 double mutant-transgenic mouse model assessed as decrease in area occupied by fibrillar plaque in cortex administered once daily for 12 weeks measured post-last dose by thioflavin S staining-based fluorescence microscopic analysis; type: functional, organism-based
[5] = Plasma concentration in APPswe/PS1dE9 double mutant-transgenic mouse at 30 mg/kg, ip administered as single dose measured after 2 hrs by LC-MS/MS analysis; type: ADME, organism-based
[6] = Cmax in APPswe/PS1dE9 double mutant-transgenic mouse at 30 mg/kg, ip administered as single dose by LC-MS/MS analysis; type: ADME, organism-based; design: dose 30 mg/kg, route intraperitoneal; details: in vivo
[7] = Drug level in APPswe/PS1dE9 double mutant-transgenic mouse brain at 30 mg/kg, ip administered as single dose measured after 0.5 hrs by LC-MS/MS analysis; type: ADME, organism-based; details: read-out: Drug uptake
[8] = test system: Mus musculus; assay: Improvement in spatial memory impairment in APPswe/PS1dE9 double mutant-transgenic mouse model assessed as decrease in escape latency at 15 to 30 mg/kg, ip administered once daily for 12 weeks measured 24 hrs after training trial by morris water maze test; type: functional, organism-based
[9] = target: Mitogen-activated protein kinase 8 (Homo sapiens, UniProt P45983); assay: Inhibition of human JNK1alpha1 using ATF2 as substrate measured after 40 mins in presence of [gamma33P]ATP by scintillation counting analysis
Mitogen-activated protein kinase 8, sequence (P45983 whole entry): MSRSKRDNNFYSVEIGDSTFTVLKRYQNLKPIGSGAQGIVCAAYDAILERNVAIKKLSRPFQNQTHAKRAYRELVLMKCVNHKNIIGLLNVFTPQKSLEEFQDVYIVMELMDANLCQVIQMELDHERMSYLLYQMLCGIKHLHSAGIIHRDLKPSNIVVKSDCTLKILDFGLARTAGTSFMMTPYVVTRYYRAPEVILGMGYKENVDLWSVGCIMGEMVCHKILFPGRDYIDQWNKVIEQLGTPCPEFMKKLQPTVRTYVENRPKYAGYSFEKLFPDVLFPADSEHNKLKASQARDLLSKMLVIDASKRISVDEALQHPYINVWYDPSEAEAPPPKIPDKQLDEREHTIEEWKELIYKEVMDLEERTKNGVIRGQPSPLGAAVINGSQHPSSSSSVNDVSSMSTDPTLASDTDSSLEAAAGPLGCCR

[10] = Clearance in APPswe/PS1dE9 double mutant-transgenic mouse at 30 mg/kg, ip administered as single dose by LC-MS/MS analysis; type: ADME, organism-based; details: in vivo
[11] = test system: Mus musculus; assay: Improvement in spatial memory impairment in ip dosed APPswe/PS1dE9 double mutant-transgenic mouse model assessed as decrease in area occupied by diffused plaque in hippocampus administered once daily for 12 weeks measured post-last dose by thioflavin S staining-based fluorescence microscopic analysis; type: functional, organism-based
[12] = Drug level in APPswe/PS1dE9 double mutant-transgenic mouse brain at 30 mg/kg, ip administered as single dose measured after 2 hrs by LC-MS/MS analysis; type: ADME, organism-based; details: read-out: Drug uptake
[13] = test system: Mus musculus; assay: Improvement in spatial memory impairment in ip dosed APPswe/PS1dE9 double mutant-transgenic mouse model assessed as decrease in number of diffused plaque in hippocampus administered once daily for 12 weeks measured post-last dose by thioflavin S staining-based fluorescence microscopic analysis; type: functional, organism-based
[14] = test system: Mus musculus; assay: In vivo inhibition of JNK in APPswe/PS1dE9 double mutant-transgenic mouse model assessed as reduction in Tau phosphorylation at Thr205 residue in hippocampus at 30 mg/kg, ip administered once daily for 12 weeks measured post-last dose by Western blot analysis; type: functional, organism-based
[15] = test system: Mus musculus; assay: Improvement in spatial memory impairment in APPswe/PS1dE9 double mutant-transgenic mouse model assessed as decrease in exploration distance at 15 to 30 mg/kg, ip administered once daily for 12 weeks measured 24 hrs after training trial by morris water maze test; type: functional, organism-based
[16] = Toxicity in APPswe/PS1dE9 double mutant-transgenic mouse model assessed as effect on swimming speed at 15 to 30 mg/kg, ip administered once daily for 12 weeks measured 48 hrs after training trial by morris water maze test; type: organism-based; details: in vivo
[17] = organism: Mus musculus; details: 15 to 30 mg/kg
Description: In vivo inhibition of JNK in APPswe/PS1dE9 double mutant-transgenic mouse model assessed as increase in transformation of sAPPbeta to sAPPalpha by measuring reduction in sAPPbeta level at 15 to 30 mg/kg, ip administered once daily for 12 weeks measured post-last dose by Western blot analysis

[18] = Plasma concentration in APPswe/PS1dE9 double mutant-transgenic mouse at 30 mg/kg, ip administered as single dose measured after 0.5 hrs by LC-MS/MS analysis; type: ADME, organism-based
[19] = Plasma concentration in APPswe/PS1dE9 double mutant-transgenic mouse at 30 mg/kg, ip administered as single dose measured after 24 hrs by LC-MS/MS analysis; type: ADME, organism-based
[20] = Ratio of drug level in APPswe/PS1dE9 double mutant-transgenic mouse brain to plasma at 30 mg/kg, ip administered as single dose measured after 0.5 hrs by LC-MS/MS analysis; type: ADME, organism-based; details: read-out: BPR
[21] = Mean residence time in APPswe/PS1dE9 double mutant-transgenic mouse at 30 mg/kg, ip administered as single dose by LC-MS/MS analysis; type: ADME, organism-based; details: in vivo
[22] = test system: Mus musculus; assay: Improvement in spatial memory impairment in ip dosed APPswe/PS1dE9 double mutant-transgenic mouse model assessed as decrease in number of fibrillar plaque in hippocampus administered once daily for 12 weeks measured post-last dose by thioflavin S staining-based fluorescence microscopic analysis; type: functional, organism-based
[23] = Primary phase half life in APPswe/PS1dE9 double mutant-transgenic mouse at 3 mg/kg, iv administered as single dose by LC-MS/MS analysis; type: ADME, organism-based; details: in vivo, read-out: alphat1/2 (converted)
[24] = Cmax in APPswe/PS1dE9 double mutant-transgenic mouse at 3 mg/kg, iv administered as single dose by LC-MS/MS analysis; type: ADME, organism-based; design: dose 3 mg/kg, route intravenous; details: in vivo
[25] = test system: Mus musculus; assay: Improvement in spatial memory impairment in ip dosed APPswe/PS1dE9 double mutant-transgenic mouse model assessed as decrease in number of diffused plaque in cortex administered once daily for 12 weeks measured post-last dose by thioflavin S staining-based fluorescence microscopic analysis; type: functional, organism-based
[26] = AUC in APPswe/PS1dE9 double mutant-transgenic mouse at 30 mg/kg, ip administered as single dose by LC-MS/MS analysis; type: ADME, organism-based; details: in vivo
[27] = test system: Mus musculus; assay: Improvement in spatial memory impairment in APPswe/PS1dE9 double mutant-transgenic mouse model assessed as increase in retention latency time at 15 to 30 mg/kg, ip administered once daily for 12 weeks measured post-last dose by step-through passive avoidance test; type: functional, organism-based
[28] = AUC in APPswe/PS1dE9 double mutant-transgenic mouse at 3 mg/kg, iv administered as single dose by LC-MS/MS analysis; type: ADME, organism-based; details: in vivo
[29] = test system: Mus musculus; assay: Improvement in spatial memory impairment in ip dosed APPswe/PS1dE9 double mutant-transgenic mouse model assessed as decrease in number of fibrillar plaque in cortex administered once daily for 12 weeks measured post-last dose by thioflavin S staining-based fluorescence microscopic analysis; type: functional, organism-based
[30] = Plasma concentration in APPswe/PS1dE9 double mutant-transgenic mouse at 30 mg/kg, ip administered as single dose measured after 8 hrs by LC-MS/MS analysis; type: ADME, organism-based
[31] = test system: Mus musculus; assay: In vivo inhibition of JNK in APPswe/PS1dE9 double mutant-transgenic mouse model assessed as reduction in Tau phosphorylation at Thr205 residue in cortex at 30 mg/kg, ip administered once daily for 12 weeks measured post-last dose by Western blot analysis; type: functional, organism-based
[32] = target: Mitogen-activated protein kinase 9 (Homo sapiens, UniProt P45984); assay: Inhibition of human JNK2alpha2 using ATF2 as substrate measured after 40 mins in presence of [gamma33P]ATP by scintillation counting analysis
Mitogen-activated protein kinase 9, sequence (P45984 whole entry): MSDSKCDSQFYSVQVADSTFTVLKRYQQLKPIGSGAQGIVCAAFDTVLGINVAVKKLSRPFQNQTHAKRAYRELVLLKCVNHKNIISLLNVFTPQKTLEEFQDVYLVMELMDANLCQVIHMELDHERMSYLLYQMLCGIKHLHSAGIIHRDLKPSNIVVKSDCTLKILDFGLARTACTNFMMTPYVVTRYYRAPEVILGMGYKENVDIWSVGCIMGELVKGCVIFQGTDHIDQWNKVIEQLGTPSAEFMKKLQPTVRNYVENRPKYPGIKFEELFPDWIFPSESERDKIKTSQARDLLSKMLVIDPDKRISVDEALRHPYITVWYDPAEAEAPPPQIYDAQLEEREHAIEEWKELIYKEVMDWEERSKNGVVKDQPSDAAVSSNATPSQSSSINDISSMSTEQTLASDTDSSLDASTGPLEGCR

With `O=C1N/C(=N/c2ccccc2Cl)S/C1=C1\C(=O)Nc2ccc(F)cc21` the Activity [1] was “Non-Toxic”, the inhibition [2] was “Active” and the inhibition [3] was “Active”. For the same molecule, the Activity [4] was “Dose-dependent effect”, the concentration at 2 h [5] was 1200 ng/mL and the Cmax [6] was 19200 ng/mL. The concentration at 0.5 h [7] was 51.4 ng/g, the Activity [8] was “Active” and the pIC50 [9] was less than 4.00. For the same molecule, the CL/F [10] was 26.5 mL/min/kg, the Activity [11] was “Dose-dependent effect” and the concentration at 2 h [12] was 158 ng/g. The Activity [13] was “Dose-dependent effect”, the inhibition [14] was “Active” and the Activity [15] was “Active”. For the same molecule, the Activity [16] was “Non-Toxic”, the inhibition [17] was “Active” and the concentration at 0.5 h [18] was 20600 ng/mL. For the same molecule, the concentration at 24 h [19] was 41 ng/mL, the Kp at 0.5 h [20] was 0.0024 and the MRT [21] was 2.78 h. For the same molecule, the Activity [22] was “Dose-dependent effect”, the half-life [23] was 0.35 h and the Cmax [24] was 4550 ng/mL. For the same molecule, the Activity [25] was “Dose-dependent effect”, the AUC [26] was 19200 ng·h/mL and the Activity [27] was “Active”. The AUC [28] was 2120 ng·h/mL, the Activity [29] was “Dose-dependent effect” and the concentration at 8 h [30] was 78.1 ng/mL. For the same molecule, the inhibition [31] was “Active” and the pIC50 [32] was less than 4.00.

Source: ChEMBL document CHEMBL4359842 (J Med Chem, 2019)
